Source: ChEMBL document CHEMBL1201862, “PubChem BioAssay data set” (2004)
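Dose response: 5 concentrations. Exposure: 48 h. Format: 96-well plates. Endpoint: linear interpolation; highest concentration if not reached. GI50 marks 50% less growth.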 Calls of active or inactive are those of the source. Rule as the data show it: active = GI50 up to about 1.1 µM and inactive = higher.

Legend:
Assay in all cases: DTP human tumour cell line panel, 48 h
MCF7 = tested on: MCF7
HT-29 = tested on: HT-29
HCT-116 = tested on: HCT-116
PC-3 = tested on: PC-3
K562 = tested on: K562
TK-10 = tested on: TK-10
RPMI-8226 = tested on: RPMI-8226
NCI-H23 = tested on: NCI-H23
UACC-62 = tested on: UACC-62
T47D = tested on: T47D
SK-MEL-2 = tested on: SK-MEL-2
IGROV-1 = tested on: IGROV-1
UACC-257 = tested on: UACC-257
SK-MEL-28 = tested on: SK-MEL-28
A549 = tested on: A549
OVCAR-3 = tested on: OVCAR-3
HOP-92 = tested on: HOP-92
UO-31 = tested on: UO-31
OVCAR-8 = tested on: OVCAR-8
CCRF-CEM = tested on: CCRF-CEM

Measured: GI50

C=CCSc1nc2c(N)ncnc2n1C1OC(CO)C(O)C1O (stereo unspecified)
inactive: MCF7 > 100 µM | HT-29 > 100 µM | HCT-116 > 100 µM | PC-3 > 100 µM | K562 > 100 µM | TK-10 > 100 µM | RPMI-8226 > 100 µM | NCI-H23 > 100 µM | UACC-62 > 100 µM | T47D > 100 µM | SK-MEL-2 > 100 µM | IGROV-1 > 100 µM | UACC-257 > 100 µM | SK-MEL-28 > 100 µM | A549 > 100 µM | OVCAR-3 > 100 µM | HOP-92 > 100 µM | UO-31 > 100 µM | OVCAR-8 > 100 µM

Cc1ccc(-c2n[nH]c(=O)n2NC(=O)c2ccccc2C(=O)O)cc1
inactive: MCF7 > 100 µM | HT-29 > 100 µM | HCT-116 > 100 µM | PC-3 > 100 µM | K562 > 100 µM | TK-10 > 100 µM | RPMI-8226 > 100 µM | NCI-H23 > 100 µM | UACC-62 > 100 µM | T47D 72.8 µM | SK-MEL-2 > 100 µM | IGROV-1 > 100 µM | UACC-257 > 100 µM | SK-MEL-28 > 100 µM | A549 > 100 µM | OVCAR-3 > 100 µM | HOP-92 > 100 µM | UO-31 > 100 µM | OVCAR-8 > 100 µM

Clc1ccc(C(c2ccc(Cl)cc2)c2cncnc2)cc1
inactive: MCF7 15.3 µM | HT-29 15.1 µM | HCT-116 13.9 µM | PC-3 14.2 µM | K562 21.9 µM | TK-10 16.9 µM | RPMI-8226 34.4 µM | CCRF-CEM 17.5 µM | NCI-H23 15.9 µM | UACC-62 15.2 µM | T47D 16.6 µM | IGROV-1 16 µM | UACC-257 19.3 µM | SK-MEL-28 18.5 µM | A549 20.5 µM | OVCAR-3 14.7 µM | UO-31 11.9 µM | OVCAR-8 20.3 µM

O=C(O)C/C(=C\c1ccco1)C(=O)O
inactive: MCF7 > 100 µM | HT-29 > 100 µM | HCT-116 > 100 µM | PC-3 > 100 µM | K562 > 100 µM | TK-10 > 100 µM | RPMI-8226 > 100 µM | NCI-H23 > 100 µM | UACC-62 > 100 µM | T47D > 100 µM | SK-MEL-2 > 100 µM | IGROV-1 > 100 µM | UACC-257 > 100 µM | SK-MEL-28 > 100 µM | A549 > 100 µM | OVCAR-3 > 100 µM | UO-31 > 100 µM | OVCAR-8 > 100 µM

OC[C@H]1CC(c2nn[nH]n2)[C@H](O)[C@@H]1O (stereo partly specified)
inactive: MCF7 > 100 µM | HT-29 > 100 µM | HCT-116 > 100 µM | PC-3 > 100 µM | K562 > 100 µM | TK-10 > 100 µM | RPMI-8226 > 100 µM | CCRF-CEM > 100 µM | NCI-H23 > 100 µM | UACC-62 > 10 µM | T47D > 100 µM | IGROV-1 > 100 µM | SK-MEL-28 > 100 µM | A549 > 100 µM | OVCAR-3 > 100 µM | HOP-92 > 100 µM | UO-31 > 100 µM | OVCAR-8 > 100 µM

O=C1Nc2ccccc2S/C1=C\c1ccc(C(F)(F)F)cc1
inactive: MCF7 > 100 µM | HT-29 > 100 µM | HCT-116 > 100 µM | PC-3 > 100 µM | K562 > 100 µM | TK-10 > 100 µM | RPMI-8226 > 100 µM | UACC-62 > 100 µM | T47D > 100 µM | SK-MEL-2 > 100 µM | IGROV-1 > 100 µM | UACC-257 > 100 µM | SK-MEL-28 > 100 µM | A549 > 100 µM | OVCAR-3 > 100 µM | HOP-92 > 100 µM | UO-31 94 µM | OVCAR-8 > 100 µM

COC(=O)NC(C(F)(F)F)(C(F)(F)F)P1(=O)OCCCO1
inactive: MCF7 31.3 µM | HT-29 23.8 µM | HCT-116 23.2 µM | PC-3 25.4 µM | K562 22.9 µM | TK-10 37.4 µM | RPMI-8226 18.1 µM | CCRF-CEM 12.6 µM | NCI-H23 20.2 µM | UACC-62 15 µM | T47D 20.4 µM | IGROV-1 22.3 µM | SK-MEL-28 35.6 µM | A549 38.5 µM | OVCAR-3 28.3 µM | HOP-92 35.8 µM | UO-31 18.3 µM | OVCAR-8 27.3 µM

Cc1nc(-c2cc3cc([N+](=O)[O-])ccc3oc2=O)cs1
inactive: MCF7 > 100 µM | HT-29 > 100 µM | HCT-116 > 100 µM | PC-3 > 100 µM | K562 71.8 µM | TK-10 > 100 µM | RPMI-8226 > 100 µM | CCRF-CEM 32.9 µM | UACC-62 > 100 µM | T47D > 100 µM | SK-MEL-2 > 100 µM | IGROV-1 > 100 µM | UACC-257 > 100 µM | SK-MEL-28 > 100 µM | A549 > 100 µM | HOP-92 67.3 µM | UO-31 > 100 µM

N#CCCN(CCC#N)c1ccc(C(=N/c2ccc(F)cc2)/N=N/c2ccc(Cl)cc2)cc1
inactive: MCF7 > 100 µM | HT-29 > 100 µM | HCT-116 > 100 µM | PC-3 > 100 µM | K562 > 100 µM | TK-10 > 100 µM | RPMI-8226 > 100 µM | CCRF-CEM > 100 µM | NCI-H23 > 100 µM | UACC-62 > 100 µM | T47D > 100 µM | IGROV-1 > 100 µM | UACC-257 > 100 µM | SK-MEL-28 > 100 µM | A549 > 100 µM | OVCAR-3 > 100 µM | HOP-92 > 100 µM | UO-31 > 100 µM | OVCAR-8 > 100 µM

Cc1ccc(S(=O)(=O)C2=C([Si](C)(C)C)C3CC2[C@@H]2C4C=CC(CC4)[C@H]32)cc1 (stereo partly specified)
inactive: MCF7 > 100 µM | HT-29 > 100 µM | HCT-116 > 100 µM | PC-3 35.3 µM | K562 > 100 µM | TK-10 27 µM | UACC-62 60.5 µM | T47D 37.9 µM | SK-MEL-2 23.3 µM | IGROV-1 85.5 µM | UACC-257 > 100 µM | SK-MEL-28 > 100 µM | A549 > 100 µM | OVCAR-3 93.8 µM | HOP-92 60.7 µM | UO-31 > 100 µM | OVCAR-8 > 100 µM

CC(=O)NCC1OC2COC(c3ccccc3)OC2C(NC(=O)c2ccccc2)C1OC(=O)c1ccccc1 (stereo unspecified)
inactive: MCF7 > 100 µM | HT-29 > 100 µM | HCT-116 > 100 µM | PC-3 33.3 µM | K562 > 100 µM | TK-10 > 100 µM | CCRF-CEM > 100 µM | NCI-H23 > 100 µM | UACC-62 > 100 µM | T47D 34.5 µM | SK-MEL-2 > 100 µM | UACC-257 > 100 µM | SK-MEL-28 > 100 µM | A549 > 100 µM | OVCAR-3 > 100 µM | HOP-92 > 100 µM | UO-31 > 100 µM | OVCAR-8 > 100 µM

N#Cc1c(-c2ccc([N+](=O)[O-])cc2)c2c([nH]c1=O)-c1ccccc1CCC2
inactive: MCF7 33.4 µM | HT-29 55.3 µM | HCT-116 60.4 µM | PC-3 80.2 µM | K562 36.7 µM | TK-10 > 100 µM | RPMI-8226 30.8 µM | NCI-H23 > 100 µM | UACC-62 28.1 µM | T47D 21.5 µM | SK-MEL-2 97.9 µM | IGROV-1 46.8 µM | UACC-257 80 µM | SK-MEL-28 47.9 µM | A549 42.8 µM | OVCAR-3 31.8 µM | HOP-92 1.48 µM | UO-31 86.3 µM | OVCAR-8 55.3 µM

CC(C)(Br)C(=O)C(Br)Br
inactive: MCF7 6.38 µM | HT-29 8.17 µM | HCT-116 4.26 µM | PC-3 5.4 µM | K562 2.95 µM | TK-10 9.04 µM | CCRF-CEM 1.51 µM | NCI-H23 4.61 µM | UACC-62 10.5 µM | T47D 6.22 µM | SK-MEL-2 13 µM | IGROV-1 8.22 µM | UACC-257 9.84 µM | SK-MEL-28 9.04 µM | A549 16.6 µM | OVCAR-3 6.89 µM | HOP-92 1.7 µM | UO-31 17.5 µM | OVCAR-8 5.27 µM

O=C(/C=C/c1ccsc1)c1ccc(Cl)s1
inactive: MCF7 22.5 µM | HT-29 34 µM | HCT-116 25.4 µM | PC-3 > 100 µM | K562 > 10 µM | TK-10 > 100 µM | RPMI-8226 17.1 µM | CCRF-CEM 28.4 µM | NCI-H23 82.8 µM | UACC-62 > 100 µM | T47D > 100 µM | SK-MEL-2 > 100 µM | IGROV-1 > 100 µM | UACC-257 > 100 µM | SK-MEL-28 55.1 µM | A549 > 100 µM | UO-31 78.9 µM | OVCAR-8 > 100 µM

CC(=O)N1C(NN(C)C)CCN1c1ccccc1 (stereo unspecified)
inactive: MCF7 > 10 µM | HT-29 > 10 µM | PC-3 > 10 µM | K562 > 10 µM | TK-10 > 10 µM | RPMI-8226 > 10 µM | CCRF-CEM > 10 µM | NCI-H23 > 10 µM | UACC-62 > 10 µM | T47D > 10 µM | IGROV-1 > 10 µM | UACC-257 > 10 µM | SK-MEL-28 > 10 µM | A549 > 10 µM | HOP-92 > 10 µM | OVCAR-8 > 10 µM
